tested on: IL-12 induced STAT4 phosphorylation mediated by TYK2/JAK2; assay: IL-12 induced pSTAT4 in human PBMC; type: cell-based; conditions: 1 hr compound, 1.7 ng/mL IL-12 for 30 minutes
Procedure: Human PBMC were isolated from buffy coat and are stored frozen for assays as needed. […] 15 μL of compound or DMSO was added to the well at the desired concentrations and incubated at 1 hr at 37° C. 15 μL of stimulus (final concentration of 1.7 ng/mL IL-12) was added for 30 minutes prior to pSTAT4 and total STAT4 analysis using cell lysates prepared and analyzed by MSD reagents as per manufacturer protocol. The final DMSO concentration of compound in the assay was 0.1%. The IL-12 induced pSTAT4 assay evaluates the inhibition of IL-12 induced STAT4 phosphorlyation mediated by TYK2/JAK2 ([…] complex).

IC50, < 0.1 µM:
CNc1cc(Nc2cccn(C(C)C)c2=O)nc2c(C(=O)NC3CC[C@@H]3F)cnn12 (mixture of isomers) [Compound I-145]
CNc1cc(Nc2cccn([C@H]3C[C@@H](OC)C3)c2=O)nc2c(C(=O)NC3CC[C@@H]3F)cnn12 (mixture of isomers) [Compound I-173]
CNc1cc(Nc2cccn([C@H]3C[C@H](OC)C3)c2=O)nc2c(C(=O)NC3CC[C@@H]3F)cnn12 (mixture of isomers) [Compound I-176]
CNc1cc(Nc2cccn(C3[C@H]4COC[C@@H]34)c2=O)nc2c(C(=O)NC3C[C@H]3OC)cnn12 (mixture of isomers) [I-24, 5-((1-((1R,5S,6r)-3-Oxabicyclo[3.1.0]hexan-6-yl)-2-oxo-1,2-dihydropyridin-3-yl)amino)-N-(2-methoxycyclopropyl)-7-(methylamino)pyrazolo[1,5-a]pyrimidine-3-carboxamide]
CNc1cc(Nc2cccn([C@@H]3CCC[C@](C)(OC)C3)c2=O)nc2c(C(=O)NC3CC3)cnn12 [Compound I-124]
CNc1cc(Nc2cccn(C3COC3)c2=O)nc2c(C(=O)N[C@@H]3C[C@@H]3F)cnn12 [Compound I-125]
CNc1cc(Nc2cccn([C@H]3CCC[C@@](C)(O)C3)c2=O)nc2c(C(=O)N[C@@H]3C[C@@H]3F)cnn12 [Compound I-129]
CNc1cc(Nc2cccn(C3CCC[C@@](C)(OC)C3)c2=O)nc2c(C(=O)N[C@@H]3C[C@@H]3F)cnn12 (some centres unmarked) [Compound I-130]
CNc1cc(Nc2cccn([C@@H]3CCC[C@](C)(OC)C3)c2=O)nc2c(C(=O)N[C@@H]3C[C@@H]3F)cnn12 [Compound I-131]
CNc1cc(Nc2cccn([C@H]3C[C@@H]3F)c2=O)nc2c(C(=O)N[C@@H]3C[C@H]3OC)cnn12 [Compound I-133]
CNc1cc(Nc2cccn([C@@H]3C[C@H]3F)c2=O)nc2c(C(=O)N[C@@H]3C[C@H]3OC)cnn12 [Compound I-135]
CNc1cc(Nc2cccn([C@H]3C[C@H](F)C3)c2=O)nc2c(C(=O)N[C@H]3C[C@@H]3OC)cnn12 [Compound I-138]
CNc1cc(Nc2cccn(C3CC(F)(F)C3)c2=O)nc2c(C(=O)N[C@@H]3C[C@H]3OC)cnn12 [Compound I-139]
CNc1cc(Nc2cccn([C@H]3C[C@H](OC)C3)c2=O)nc2c(C(=O)NC3CCC3)cnn12 [Compound I-141]
CNc1cc(Nc2cccn([C@H]3[C@@H]4COC[C@@H]43)c2=O)nc2c(C(=O)NC3CCC3)cnn12 [Compound I-142]
CNc1cc(Nc2cccn(C3CCOCC3)c2=O)nc2c(C(=O)NC3CCC3)cnn12 [Compound I-143]
CNc1cc(Nc2cccn(-c3ocnc3C)c2=O)nc2c(C(=O)NC3CCC3)cnn12 [Compound I-144]
CNc1cc(Nc2cccn(C(C)C)c2=O)nc2c(C(=O)N[C@@H]3CC[C@H]3F)cnn12 [Compound I-147]
CNc1cc(Nc2cccn([C@H]3C[C@@H]3F)c2=O)nc2c(C(=O)N[C@H]3CC[C@@H]3F)cnn12 [Compound I-149]
CNc1cc(Nc2cccn([C@@H]3C[C@H]3F)c2=O)nc2c(C(=O)NC3CC[C@@H]3F)cnn12 (some centres unmarked) [Compound I-151]
CNc1cc(Nc2cccn([C@@H]3C[C@H]3OC)c2=O)nc2c(C(=O)N[C@H]3CC[C@@H]3F)cnn12 [Compound I-155]
CNc1cc(Nc2cccn([C@H]3C[C@@H]3OC)c2=O)nc2c(C(=O)N[C@H]3CC[C@@H]3F)cnn12 [Compound I-158]
CNc1cc(Nc2cccn(C3COC3)c2=O)nc2c(C(=O)NC3CC[C@H]3F)cnn12 (some centres unmarked) [Compound I-160]
CNc1cc(Nc2cccn(C3COC3)c2=O)nc2c(C(=O)N[C@@H]3CC[C@@H]3F)cnn12 [Compound I-162]
CNc1cc(Nc2cccn(C3COC3)c2=O)nc2c(C(=O)NC3CC[C@@H]3F)cnn12 (some centres unmarked) [Compound I-163]
CNc1cc(Nc2cccn([C@H]3C[C@H](F)C3)c2=O)nc2c(C(=O)NC3CC[C@@H]3F)cnn12 (some centres unmarked) [Compound I-164]
CNc1cc(Nc2cccn([C@H]3C[C@H](F)C3)c2=O)nc2c(C(=O)N[C@H]3CC[C@@H]3F)cnn12 [Compound I-165]
CNc1cc(Nc2cccn([C@H]3CC[C@H]3O)c2=O)nc2c(C(=O)NC3CC[C@@H]3F)cnn12 (some centres unmarked) [Compound I-167]
CNc1cc(Nc2cccn([C@H]3CC[C@H]3O)c2=O)nc2c(C(=O)N[C@@H]3CC[C@H]3F)cnn12 [Compound I-169]
CNc1cc(Nc2cccn([C@H]3C[C@@H](OC)C3)c2=O)nc2c(C(=O)N[C@H]3CC[C@@H]3F)cnn12 [Compound I-174]
CNc1cc(Nc2cccn([C@H]3C[C@H](OC)C3)c2=O)nc2c(C(=O)N[C@@H]3CC[C@H]3F)cnn12 [Compound I-178]
CNc1cc(Nc2cccn([C@@H]3CCC[C@@H]3O)c2=O)nc2c(C(=O)NC3CC[C@@H]3F)cnn12 (some centres unmarked) [Compound I-179]
CNc1cc(Nc2cccn([C@@H]3CCC[C@@H]3O)c2=O)nc2c(C(=O)N[C@@H]3CC[C@H]3F)cnn12 [Compound I-181]
CNc1cc(Nc2cccn(-c3ocnc3C)c2=O)nc2c(C(=O)NC3CC[C@@H]3F)cnn12 (some centres unmarked) [Compound I-185]
CNc1cc(Nc2cccn(-c3ocnc3C)c2=O)nc2c(C(=O)N[C@H]3CC[C@@H]3F)cnn12 [Compound I-186]
CNc1cc(Nc2cccn(C3CCOCC3)c2=O)nc2c(C(=O)NC3CC[C@@H]3F)cnn12 (some centres unmarked) [Compound I-188]
CNc1cc(Nc2cccn(C3CCOCC3)c2=O)nc2c(C(=O)N[C@@H]3CC[C@H]3F)cnn12 [Compound I-190]
CNc1cc(Nc2cccn(C3CCOCC3)c2=O)nc2c(C(=O)NC3CC[C@H]3F)cnn12 (some centres unmarked) [Compound I-191]
CNc1cc(Nc2cccn(C3CCOCC3)c2=O)nc2c(C(=O)N[C@H]3CC[C@H]3F)cnn12 [Compound I-192]
CNc1cc(Nc2cccn(C3CCOCC3)c2=O)nc2c(C(=O)N[C@@H]3CC[C@@H]3F)cnn12 [Compound I-193]
CNc1cc(Nc2cccn([C@@H]3CCCOC3)c2=O)nc2c(C(=O)NC3CC[C@@H]3F)cnn12 (some centres unmarked) [Compound I-194]
CNc1cc(Nc2cccn([C@@H]3CCCOC3)c2=O)nc2c(C(=O)N[C@@H]3CC[C@H]3F)cnn12 [Compound I-196]
CNc1cc(Nc2cccn([C@H]3CCCOC3)c2=O)nc2c(C(=O)NC3CC[C@@H]3F)cnn12 (some centres unmarked) [Compound I-197]
CNc1cc(Nc2cccn([C@H]3CCCOC3)c2=O)nc2c(C(=O)N[C@H]3CC[C@@H]3F)cnn12 [Compound I-198]
CNc1cc(Nc2cccn(-c3ccccn3)c2=O)nc2c(C(=O)NC3CC[C@@H]3F)cnn12 (some centres unmarked) [Compound I-200]
CNc1cc(Nc2cccn(-c3ccccn3)c2=O)nc2c(C(=O)N[C@H]3CC[C@@H]3F)cnn12 [Compound I-201]
CNc1cc(Nc2cccn([C@H]3[C@@H]4COC[C@@H]43)c2=O)nc2c(C(=O)NC3CC[C@H]3F)cnn12 (some centres unmarked) [Compound I-203]
CNc1cc(Nc2cccn([C@H]3[C@@H]4COC[C@@H]43)c2=O)nc2c(C(=O)N[C@H]3CC[C@H]3F)cnn12 [Compound I-204]
CNc1cc(Nc2cccn([C@H]3[C@@H]4COC[C@@H]43)c2=O)nc2c(C(=O)N[C@@H]3CC[C@@H]3F)cnn12 [Compound I-205]
CNc1cc(Nc2cccn([C@H]3[C@@H]4COC[C@@H]43)c2=O)nc2c(C(=O)NC3CC[C@@H]3F)cnn12 (some centres unmarked) [Compound I-206]
CNc1cc(Nc2cccn([C@H]3[C@@H]4COC[C@@H]43)c2=O)nc2c(C(=O)N[C@@H]3CC[C@H]3F)cnn12 [Compound I-208]
CNc1cc(Nc2cccn([C@@H]3CCCC[C@@H]3O)c2=O)nc2c(C(=O)NC3CC[C@@H]3F)cnn12 (some centres unmarked) [Compound I-209]
CNc1cc(Nc2cccn([C@@H]3CCCC[C@@H]3O)c2=O)nc2c(C(=O)N[C@@H]3CC[C@H]3F)cnn12 [Compound I-211]
CNc1cc(Nc2cccn([C@H]3CCCC[C@H]3O)c2=O)nc2c(C(=O)N[C@@H]3CC[C@H]3F)cnn12 [Compound I-214]
CNc1cc(Nc2cccn([C@@H]3CCOC[C@@H]3OC)c2=O)nc2c(C(=O)N[C@@H]3CC[C@H]3F)cnn12 [Compound I-217]
CNc1cc(Nc2cccn([C@H]3CC[C@H](OC)CC3)c2=O)nc2c(C(=O)NC3CC[C@@H]3F)cnn12 (some centres unmarked) [Compound I-224]
CNc1cc(Nc2cccn([C@H]3CC[C@H](OC)CC3)c2=O)nc2c(C(=O)N[C@H]3CC[C@@H]3F)cnn12 [Compound I-225]
CNc1cc(Nc2cccn([C@@H]3CCC[C@@H](OC)C3)c2=O)nc2c(C(=O)NC3CC[C@@H]3F)cnn12 (some centres unmarked) [Compound I-227]
CNc1cc(Nc2cccn([C@@H]3CCC[C@@H](OC)C3)c2=O)nc2c(C(=O)N[C@H]3CC[C@@H]3F)cnn12 [Compound I-228]
CNc1cc(Nc2cccn([C@H]3CCC[C@H](OC)C3)c2=O)nc2c(C(=O)NC3CC[C@@H]3F)cnn12 (some centres unmarked) [Compound I-230]
CNc1cc(Nc2cccn([C@H]3CCC[C@H](OC)C3)c2=O)nc2c(C(=O)N[C@H]3CC[C@@H]3F)cnn12 [Compound I-231]
CNc1cc(Nc2cccn([C@@H]3CCOC[C@@H]3OC)c2=O)nc2c(C(=O)N[C@@H]3CC[C@@H]3F)cnn12 [Compound I-235]
